One may read the IC50 as the concentration needed to halve the response being measured.

Drawing on ChEMBL document CHEMBL5338790, “Discovery of Subcellular-Targeted Aza-BODIPY Photosensitizers for Efficient Photodynamic Antitumor Therapy” (J Med Chem, 2023), this text covers Drug uptake, Activity and IC50 for one compound.

The nature of data set [1]: Drug distribution in lungs of Balb/C nu/nu mouse xenografted with human HeLa cells at 2.5 umol/kg, iv measured for 24 hr by IVIS imaging analysis. Type of data set: ADME, organism-based, Lung. The conditions noted are these: in vivo, dose 2.5 µmol/kg.
Data set [2] relates to HeLa. The data set is described as follows: Induction of apoptosis in human HeLa cells assessed as necrotic cells at 12.5 nM incubated for 3 hrs with photo-irradiation at 54 J/cm2 by Annexin V-FITC/PI staining based flow cytometry relative to control. Type of data set: functional.
Data set [3] is described as follows: Drug distribution in kidneys of Balb/C nu/nu mouse xenografted with human HeLa cells at 2.5 umol/kg, iv measured for 24 hr by IVIS imaging analysis. Type of data set: ADME, organism-based, Kidney. The conditions noted are these: in vivo, dose 2.5 µmol/kg. (In xenograft studies the graft and the host belong to different species.)
Data set [4] deals with HepG2. The data set is described as follows: Photodynamic cytotoxicity against human HepG2 cells assessed as inhibition of cell viability incubated for 3 hrs followed by photo-irradiation at 54 J/cm2 measured after 24 hrs by CCK8 assay. The data set is classed as functional, cell-based. As to conditions: HepG2, light or radiation study. (In general: Tetrazolium assays rely on reduction of a dye to a coloured formazan, in cell work by metabolically active cells.)

For `COc1ccc2c(c1)CCc1c(-c3ccccc3)c3n(c1-2)[B-](F)(F)[N+]1=C(c2ccc(OCC(=O)NCCCN4CCOCC4)cc2)C(I)=C(c2ccccc2)C1=N3`, the Drug uptake entry in data set [1] and in data set [3] was “Not Active” in each case. Also, the Activity in data set [2] was determined as 1.07%. The IC50 in data set [4] came to 6.1 nM.
